Laboratory results: US20240165196A1, “Beta-Lactamase Inhibitors” (VIB VZW, priority 2021, published 2024)

Tests used:
[1] = tested on: 16 additional E. coli clinical isolates containing TEM or SHV enzymes; test: MIC of ampicillin with fixed 30 μg/ml TEM3.2, isolate panel summary; type: cell-based; conditions: 14 out of 16 isolates
Procedure: Moreover, the core sequence of peptide TEM3.0 also occurs in the structurally related SHV β-lactamase (FIG. 2E). Although the C-terminal extension residues H and N have been replaced with physicochemically similar R and Q, respectively (FIG. 2H). […] To quantify the synergy between these four peptides and penicillin G, we performed a so-called checkerboard assay, which allows to compare the activity of two test compounds co-incubated (here peptide and a beta-lactam antibiotic), to their individual activities in isolation. The result from the assay is quantified as the Fractional Inhibitory Concentration Index (FICI), and it is generally accepted that values below 0.5 indicate synergistic effects between the compounds. […] We evaluated the synergy of the peptides with penicillin G in clinical E. coli isolates carrying the TEM (FIG. 2I) or SHV enzymes (FIG. 2J). […]
Determination of MIC values using the broth microdilution in the 96-well plate (BD Biosciences, Belgium) according to the EUCAST guideline, which was performed in 96-well polystyrene flat bottom microtiter plates (BD Biosciences). […] OD was measured at 590 nm a multipurpose ultraviolet-visible plate reader, and the absorbance of the growth bacteria was measured using absorbance reader. Bacterial growth was also visually inspected and agreed well with the OD reading.

[2] = tested on: E. coli K12 MG1655 overexpressing GFP; test: Structured Illumination Microscopy of bacterial strains stably expressing GFP or FP fusions; type: cell-based; conditions: strains expressing GFP or proteins fused to FPs, treated with TEM3.2
Procedure: FIGS. 3A-3P. […] Three replicates are shown for each condition. […] A single representative image is shown. […] Three replicates are shown for each condition. (FIG. 3E) [Left] […] [Middle] […] [Right] […] A single representative image is shown. […] A single representative image is shown. […] A single representative image is shown. […] A single representative blot is shown. […] 106 cells were analysed for the plot.
Moreover, we confirmed the presence of the protein in the correct band using mass spectrometry proteomics. We repeated this with a strain expressing SHV-154, blotting with a polyclonal rabbit antibody raised against the recombinant SHV enzyme described above (FIG. 3K).
Bacteria were fixed by adding 2.5% paraformaldehyde and 0.04% glutaraldehyde (final concentrations) to the culture media, followed by incubation at room temperature for 15 mins and 30 mins on ice. Bacteria were then washed in PBS and resuspended in GTE buffer (50 mM glucose, 25 mM Tris, and 10 mM EDTA, pH 8.0). Directly preceding microscopic analysis, cells were transferred to a glass slide and covered with a coverslip. Imaging was performed using a Zeiss Elyra S.1 system in the LiMoNe Light microscopy facility of VIB-KU Leuven.

HeLa = type: cell-based, human
Source text: FIGS. 4A-4K. […] IV—Intravenous, IP—Intraperitoneal, SC—Subcutaneously. The data shown is from a single experiment with 4 animals per group. […] (ns—non significant, #—P>0.05, *—P≤0.05, ***—P≤0.01, ****—P≤0.001). (FIG. 4G) FICI plot as in FIG. 2, for the E. coli strains indicated and the combination of penicillin and the TEM3.2 peptide. […] (FIG. 4J) Same as FIG. 4H for peptide BGAL. (FIG. 4K) Same as FIG. 4H for peptide P33.
Given this broad activity on clinical isolates, we wondered if the TEM3.2 peptide could be used to re-sensitize bacteria to ampicillin treatment in vivo, in a mouse Urinary Tract Infection (UTI) model.

[3] = tested on: primary mouse cortical neurons; type: cell-based
E. coli strain UZ_TEM104 = type: cell-based; conditions: peptide alone
Source text: In order to generate a synthetic amyloid peptide capable of inactivating the TEM-1 beta-lactamase enzyme by capitalizing on its aggregation propensity, we applied a previously developed design pattern for synthetic aggregating sequences. This involves a tandem repeat of the APR, each instance flanked by charged amino acids for solubility and separated by a short peptide linker^19,20,23 (FIG. 2G). Previous work has shown that good bacterial uptake can be achieved using one positively charged arginine residue on the N-terminal side of each APR in the tandem and two arginine residues on the C-terminal side. This has the additional benefit of reducing the self-aggregation of the peptides and increasing their solubility prior to target engagement. As before, we employed a single Pro residue as a linker between the APRs and focused on an APR length of seven, extending shorter APRs to this length by incorporating flanking amino acids unless they were obvious aggregation breakers (Arg, Lys, Asp, Glu or Pro, see Table 1). We obtained these peptides from solid phase synthesis, followed by HPLC purification to a purity judged by reverse phase chromatography of at least 90% (Genscript).
Determination of MIC values using the broth microdilution in the 96-well plate (BD Biosciences, Belgium) according to the EUCAST guideline, which was performed in 96-well polystyrene flat bottom microtiter plates (BD Biosciences). Briefly, a single colony was inoculated into 5 mL Difco™ Mueller Hinton Broth (BD Biosciences Ref 275730) and grown to the end-exponential growth phase in a shaking incubator at 37° C. Cultures were subsequently diluted to an MacFarland (0.5 optical density) then the culture was diluted to reach 10^6 CFU/mL in fresh MHB medium. 50 μl of different concentration of peptides ranging from 128 to 2 μg/mL were serially diluted to the sterile 96-well plate in MHB. 50 μL of the diluted bacteria in MHB were pipetted into 96-well plates to reach the final volume of 100 μL. The bacteria grown with the maximum concentration of carrier and medium were considered as positive and negative controls, respectively. The plates were statically incubated overnight at 37° C. to allow bacterial growth. OD was measured at 590 nm a multipurpose ultraviolet-visible plate reader, and the absorbance of the growth bacteria was measured using absorbance reader. Bacterial growth was also visually inspected and agreed well with the OD reading.

Ac-RLTAFLHNRRPRLTAFLRQRR-NH2 [TEM3.2]
clinical isolates sensitized to ampicillin [1]: 87%
induced aggregation of fluorescent proteins [2]: did not observe any induced aggregation
cytotoxicity (Cell Titer Blue) (HeLa): not cytotoxic
cytotoxicity (Cell Titer Blue) [3]: not cytotoxic

Ac-RLTAFLHNRRPRLTAFLHNRR-NH2 [TEM3.0]
MIC peptide (E. coli strain UZ_TEM104): >100 µg/mL
